PubChem BioAssay (NCI)
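Cells were grown in 96-well plates and exposed to each compound for 48 hours at five concentrations; endpoints were interpolated linearly between bracketing concentrations, or set to the highest concentration if not reached. TGI is the concentration that stops growth completely.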 Where a SMILES comes first, the peptide text is derived from it. The star is where a group is joined. Boc = CC(C)(C)OC(=O)*

Legend:
Assay in all cases: NCI-60 cell line screen, 48 h
MOLT-4 leukemia = system: MOLT-4 leukemia
NCI-H23 lung = system: NCI-H23 lung
T-47D breast = system: T-47D breast
CCRF-CEM leukemia = system: CCRF-CEM leukemia
SN12C renal = system: SN12C renal
HT29 colon = system: HT29 colon
A549 NSCLC = system: A549 NSCLC
NCI-H226 lung = system: NCI-H226 lung
HCT-116 colon = system: HCT-116 colon
SF-295 CNS = system: SF-295 CNS
SW-620 colon = system: SW-620 colon
HS 578T breast = system: HS 578T breast
HOP-62 NSCLC = system: HOP-62 NSCLC
PC-3 prostate = system: PC-3 prostate
BT-549 breast = system: BT-549 breast

Measured: TGI

O=C1NC(=S)NC1C(Cc1ccccc1)c1ccco1 (configuration not stated)
not listed: HOP-62 NSCLC | PC-3 prostate | BT-549 breast
> 100 µM: all other assays above

CNC(=O)CNC(=O)C(NC(=O)CNC(=O)C1CCCN1C(=O)C(C)NC(=O)C(NC(=O)OC(C)(C)C)C(C)C)C(C)C (configuration not stated) (Boc-VAPGVG-NHMe; configuration not given here)
not listed: A549 NSCLC | NCI-H226 lung | HS 578T breast | BT-549 breast
> 100 µM: all other assays above

CCCc1c(O)c2ccccc2[nH]c1=O
not listed: T-47D breast
> 100 µM: all other assays above

O=C(c1ccccc1)c1ccc(N2C(=O)/C(=C/c3cccc([N+](=O)[O-])c3)N=C2c2ccccc2)c(N2C(=O)/C(=C/c3cccc([N+](=O)[O-])c3)N=C2c2ccccc2)c1
not listed: NCI-H23 lung | CCRF-CEM leukemia | NCI-H226 lung
> 100 µM: all other assays above

COc1ccc(/C=C2\C(=O)Nc3ccccc32)cc1OC
not listed: T-47D breast | HS 578T breast | PC-3 prostate | BT-549 breast
> 100 µM: all other assays above

NC(=S)Nc1c(S(N)(=O)=O)cc(S(N)(=O)=O)c(Cl)c1Cl
not listed: T-47D breast
> 100 µM: all other assays above

O=C(CC(O)(C(F)(F)Cl)C(F)(F)Cl)CC(O)(C(F)(F)Cl)C(F)(F)Cl
4.29 µM: NCI-H23 lung
5.11 µM: HOP-62 NSCLC
6.6 µM: T-47D breast
8.2 µM: PC-3 prostate
7.86 µM: HS 578T breast
4.66 µM: NCI-H226 lung
9.51 µM: SF-295 CNS
3.68 µM: HCT-116 colon
not listed: BT-549 breast
> 10 µM: all other assays above

Cc1ccc(C2=NN=C3C(c4ccccc4)=Nc4ccccc4N3C2)cc1
> 81.1 µM: HT29 colon
> 35.5 µM: MOLT-4 leukemia
40 µM: HS 578T breast
> 63.8 µM: HOP-62 NSCLC
> 83.7 µM: HCT-116 colon
not listed: CCRF-CEM leukemia
> 100 µM: all other assays above

Cn1c(=O)oc2cc(C(=O)CN3CCN(Cc4ccc5c(c4)OCO5)CC3)c(Cl)cc21
not listed: HT29 colon | A549 NSCLC | NCI-H226 lung | SW-620 colon | BT-549 breast
> 100 µM: all other assays above

Nc1c2ccccc2nc2nccnc12
not listed: T-47D breast | HS 578T breast | PC-3 prostate | BT-549 breast
> 100 µM: all other assays above

CCN(CC)CCC1CCCCN1CC(=O)N1c2ccccc2NC(=O)CC1C (configuration not stated)
not listed: SW-620 colon | BT-549 breast
> 100 µM: all other assays above

COc1ccc(NS(=O)(=O)c2ccc3ncn(NS(=O)(=O)c4ccc(I)cc4)c(=O)c3c2)cc1
not listed: BT-549 breast
> 100 µM: all other assays above

Nc1ccc(N=Nc2ccc(-c3ccc(N=Nc4c(S(=O)(=O)O)cc5cc(S(=O)(=O)O)c(N=Nc6ccc([N+](=O)[O-])cc6)c(N)c5c4O)cc3)cc2)c2cc(S(=O)(=O)O)ccc12
not listed: T-47D breast | HS 578T breast | PC-3 prostate | BT-549 breast
> 100 µM: all other assays above

CCCCN(CCCC)C1(c2cc3ccccc3s2)CCCCC1
36.6 µM: SN12C renal
34 µM: A549 NSCLC
26.8 µM: SF-295 CNS
33.8 µM: SW-620 colon
34.1 µM: PC-3 prostate
27.5 µM: HT29 colon
28.7 µM: CCRF-CEM leukemia
35.1 µM: BT-549 breast
33.9 µM: NCI-H226 lung
34.7 µM: T-47D breast
28.8 µM: MOLT-4 leukemia
23.7 µM: HCT-116 colon
29.2 µM: HOP-62 NSCLC
29.5 µM: NCI-H23 lung

O=C1CCN(CCC(F)(F)C(F)(F)C(F)(F)C(F)(F)F)C(=S)N1
not listed: T-47D breast | HS 578T breast | PC-3 prostate | BT-549 breast
> 100 µM: all other assays above

N#Cc1nc(/C=C/c2cccs2)oc1N
not listed: NCI-H23 lung | T-47D breast | NCI-H226 lung | SF-295 CNS | BT-549 breast
> 100 µM: all other assays above

Cc1cc2c(=O)c3ccc(Cl)cc3[nH]c2c(C(=O)O)c1C
not listed: T-47D breast | HS 578T breast | PC-3 prostate | BT-549 breast
> 100 µM: all other assays above
